Data on three molecules can be found in patent US12440571B2, “Immune agonists” (SHENZHEN UNIVERSITY, priority 2020, dated 2025).

Common to all, as to type: cell-based
The subject of experiment [1] is human lymphoma Daudi B cells. Nature of the experiment: CCK8 growth inhibition, Daudi B. As to conditions: Homo sapiens, Daudi, CCK8 method; read-out: IC50 of inhibitory activity on tumor cell growth, Daudi B.
Another experiment deals with A549. Kind of experiment: CCK8 growth inhibition, A549. As to conditions: Homo sapiens, CCK8 method, read-out: IC50 of inhibitory activity on tumor cell growth, A549.
The test system of experiment [2] is human leukemia K562 cells. Nature of the experiment: CCK8 growth inhibition, K562. The conditions noted are these: CCK8 method, read-out: IC50 of inhibitory activity on tumor cell growth, K562.
The subject of the next experiment is HEK293T cells. Kind of experiment: CCK8 growth inhibition, HEK-293T. As to conditions: Homo sapiens, CCK8 method, read-out: IC50 of inhibitory activity on cell growth, HEK-293T.
The test system of experiment [3] is murine leukemia WEHI-3 cells. Nature of the experiment: CCK8 growth inhibition, WEHI-3. As to conditions: Mus musculus, CCK8 method, read-out: IC50 of inhibitory activity on tumor cell growth, WEHI-3.

For `CCCCOc1nc(N)c2nc(O)n(Cc3cn(CCOCCOCCOCCNC(=S)N4CCCC(n5nc(-c6ccc(Oc7ccccc7)cc6)c6c(N)ncnc65)C4)nn3)c2n1` (stereo not drawn) [GY112], the IC50 was 8.73 µM in experiment [1]; 16.8 µM in the experiment on A549; 14.6 µM in experiment [2]; 13.8 µM in the experiment on HEK293T cells; 5.31 µM in experiment [3].
For the molecule `CCCCOc1nc(N)c2nc(O)n(Cc3cn(CCOCCOCCOCCNC(=S)Nc4cc(Nc5nccc(-c6cn(C)c7ccccc67)n5)c(OC)cc4N(C)CCN(C)C)nn3)c2n1` [GY127], the half-maximal inhibitory concentration (IC50) is 23.2 µM in the experiment with A549, 17.8 µM in experiment [2] and 26 µM in the experiment with HEK293T cells.
With `CCCCOc1nc(N)c2nc(O)n(Cc3cn(CCCCN4CCN(CCCNC(=S)N5CCCC(n6nc(-c7ccc(Oc8ccccc8)cc7)c7c(N)ncnc76)C5)CC4)nn3)c2n1` (stereo not drawn) [GY161], the IC50 in experiment [1] was found to be 11.8 µM.
